System: CD-1 mice
Test: Luciferase expression in organs after intravenous injection of pCILuc complexes
Format: in vivo
Conditions: for Luciferase RLU/20 μl lysate heart / Luciferase RLU/20 μl lysate kidney / Luciferase RLU/20 μl lysate liver / Luciferase RLU/20 μl lysate lung / Luciferase RLU/20 μl lysate spleen: 40 μg pCILuc i.v., 5 h; for Luciferase activity heart / Luciferase activity kidney / Luciferase activity liver / Luciferase activity lung / Luciferase activity spleen: Table 5
Experimental: Substituted aminoethanols (cationic compounds) were prepared as described in Examples 1-34. Their gene delivery ability was studied in vivo by intravenous injection (Table 1 and 2) using a standard method. The preparations were administered via tail vein injection to mice and gene expression determined after 5 hours. Female CD-1 mice, 13-15 g, were purchased from Charles River Inc. Forty microgram of pCILuc complexed with GC lipids or GC lipid:Chol dispersion as indicated weight ratios. After 5 h, mice were sacrificed and organs were collected. Organs were homogenized in 0.5 ml of lysis buffer and 20 μl of supernatant was used for luciferase assay. Luciferase activity was represented as a mean of relative light unit (RLU) of four mice. The lipids were either used alone or combined with cholesterol and complexed with a luciferase reporter gene plasmid by a standard procedure at a range of weight and charge ratios. For the in vivo screen, 40 μg of pCILuc was complexed with the formulation and injected into the mice.
All compounds were evaluated for in vivo activity. Two critical factors were examined, formulation with or without cholesterol and the ratio of cationic lipid to DNA. Cholesterol was tested at 1:1 mole ratio of lipid:chol. The studies were performed with a dose of 40 μg of pCILuc complexed with cationic lipid or lipid: Chol (1:1 mole ratio) injected i.v. into CD-1 mice and then luciferase activity in different organs determined 5 h later. The first evaluation included all of 14 GC-lipids at weight ratios of 2 and 10 (GC lipid to DNA). It was performed by four separated experiments. Each time cationic liposome DOTAP:Chol was used as a standard control.
Measurements were repeated with lipids GC-030, GC-034 and GC-029 at wider weight ratios than the first experiment. Luciferase activity is represented as a mean of relative light unit (RLU) of four mice. WR means weight ratio of GC lipids to DNA. The transfection activity was represented by luciferase activity RLU/organ. […] The transfection activity increased with the increased weight ratio (GC lipids to DNA). Inclusion of cholesterol can change the biodistribution of gene expression in the different organs examined. […] However this function of cholesterol was not seen with GC-034.

CCCCCCCCCCCCCCCCCC(CCCCCCCCCCCCCCCCC)NC(=O)CNC(=O)CNC(=O)[C@H](CCCNCCCN)NCCCN.O=C(O)C(F)(F)F.O=C(O)C(F)(F)F.O=C(O)C(F)(F)F.O=C(O)C(F)(F)F [GC-038]
Luciferase RLU/20 μl lysate heart (WR 2): 101 RLU/20 μl lysate | Luciferase RLU/20 μl lysate kidney (WR 2): 60 RLU/20 μl lysate | Luciferase RLU/20 μl lysate liver (WR 2): 59 RLU/20 μl lysate | Luciferase RLU/20 μl lysate lung (WR 2): 142 RLU/20 μl lysate | Luciferase RLU/20 μl lysate heart (WR 10): 57 RLU/20 μl lysate | Luciferase RLU/20 μl lysate kidney (WR 10): 58 RLU/20 μl lysate | Luciferase RLU/20 μl lysate liver (WR 10): 93 RLU/20 μl lysate | Luciferase RLU/20 μl lysate lung (WR 10): 63 RLU/20 μl lysate | Luciferase RLU/20 μl lysate spleen (WR 10, spleen): 160 RLU/20 μl lysate | Luciferase RLU/20 μl lysate spleen (WR (lipid to DNA) 2, spleen): 61 RLU/20 μl lysate

CC(C)CCC[C@@H](C)[C@H]1CC[C@H]2[C@@H]3CC=C4C[C@@H](OC(=O)NCCNC(=O)[C@@H](N)CCCN)CC[C@]4(C)[C@H]3CC[C@]12C [GC-003]
Luciferase RLU/20 μl lysate heart (WR 2): 37 RLU/20 μl lysate | Luciferase RLU/20 μl lysate kidney (WR 2): 38 RLU/20 μl lysate | Luciferase RLU/20 μl lysate liver (WR 2): 33 RLU/20 μl lysate | Luciferase RLU/20 μl lysate lung (WR 2): 37 RLU/20 μl lysate | Luciferase RLU/20 μl lysate heart (WR 10): 39 RLU/20 μl lysate | Luciferase RLU/20 μl lysate kidney (WR 10): 40 RLU/20 μl lysate | Luciferase RLU/20 μl lysate liver (WR 10): 73 RLU/20 μl lysate | Luciferase RLU/20 μl lysate lung (WR 10): 69 RLU/20 μl lysate | Luciferase RLU/20 μl lysate spleen (WR 10, spleen): 65 RLU/20 μl lysate | Luciferase RLU/20 μl lysate spleen (WR (lipid to DNA) 2, spleen): 36 RLU/20 μl lysate

CCCCCCCCCCCCCCCCCC(CCCCCCCCCCCCCCCCC)OC(=O)NCCNC(=O)[C@@H](N)CCCN.O=C(O)C(F)(F)F.O=C(O)C(F)(F)F [GC-030]
Luciferase activity heart (WR 1): 1,675 RLU/organ | Luciferase activity kidney (WR 1): 1,392 RLU/organ | Luciferase activity liver (WR 1): 3,642 RLU/organ | Luciferase activity lung (WR 1): 3,308 RLU/organ | Luciferase activity spleen (WR 1, spleen): 23,308 RLU/organ | Luciferase RLU/20 μl lysate heart (WR 2): 48 RLU/20 μl lysate | Luciferase activity heart (WR 2): 1,367 RLU/organ | Luciferase RLU/20 μl lysate kidney (WR 2): 51 RLU/20 μl lysate | Luciferase activity kidney (WR 2): 1,458 RLU/organ | Luciferase RLU/20 μl lysate liver (WR 2): 70 RLU/20 μl lysate | Luciferase activity liver (WR 2): 3,417 RLU/organ | Luciferase RLU/20 μl lysate lung (WR 2): 88 RLU/20 μl lysate | Luciferase activity lung (WR 2): 1,600 RLU/organ | Luciferase activity spleen (WR 2, spleen): 73,442 RLU/organ | Luciferase activity heart (WR 6): 817 RLU/organ | Luciferase activity kidney (WR 6): 792 RLU/organ | Luciferase activity liver (WR 6): 1,550 RLU/organ | Luciferase activity lung (WR 6): 8,808 RLU/organ | Luciferase activity spleen (WR 6, spleen): 38,058 RLU/organ | Luciferase RLU/20 μl lysate heart (WR 10): 67 RLU/20 μl lysate | Luciferase activity heart (WR 10): 3,450 RLU/organ | Luciferase RLU/20 μl lysate kidney (WR 10): 105 RLU/20 μl lysate | Luciferase activity kidney (WR 10): 1,367 RLU/organ | Luciferase RLU/20 μl lysate liver (WR 10): 1,093 RLU/20 μl lysate | Luciferase activity liver (WR 10): 114,425 RLU/organ | Luciferase RLU/20 μl lysate lung (WR 10): 1,396 RLU/20 μl lysate | Luciferase activity lung (WR 10): 35,117 RLU/organ | Luciferase RLU/20 μl lysate spleen (WR 10, spleen): 5,305 RLU/20 μl lysate | Luciferase activity spleen (WR 10, spleen): 446,650 RLU/organ | Luciferase activity heart (WR 20): 4,783 RLU/organ | Luciferase activity kidney (WR 20): 17,583 RLU/organ | Luciferase activity liver (WR 20): 1,003,125 RLU/organ | Luciferase activity lung (WR 20): 689,475 RLU/organ | Luciferase activity spleen (WR 20, spleen): 2,479,217 RLU/organ | Luciferase RLU/20 μl lysate spleen (WR (lipid to DNA) 2, spleen): 3,692 RLU/20 μl lysate | luciferase activity in spleen relative to DOTAP:Chol standard (weight ratio 20, spleen): 36 fold

CCCCCCCCCCCCCCCCCCN(CCCCCCCCCCCCCCCCCC)C(=O)CNC(=O)[C@H](CCCN(CCCN)CCCN)N(CCCN)CCCN.O=C(O)C(F)(F)F.O=C(O)C(F)(F)F.O=C(O)C(F)(F)F.O=C(O)C(F)(F)F.O=C(O)C(F)(F)F.O=C(O)C(F)(F)F [GC-016]
Luciferase RLU/20 μl lysate heart (WR 2): 44 RLU/20 μl lysate | Luciferase RLU/20 μl lysate kidney (WR 2): 41 RLU/20 μl lysate | Luciferase RLU/20 μl lysate liver (WR 2): 38 RLU/20 μl lysate | Luciferase RLU/20 μl lysate lung (WR 2): 45 RLU/20 μl lysate | Luciferase RLU/20 μl lysate heart (WR 10): 40 RLU/20 μl lysate | Luciferase RLU/20 μl lysate kidney (WR 10): 40 RLU/20 μl lysate | Luciferase RLU/20 μl lysate liver (WR 10): 95 RLU/20 μl lysate | Luciferase RLU/20 μl lysate lung (WR 10): 67 RLU/20 μl lysate | Luciferase RLU/20 μl lysate spleen (WR 10, spleen): 230 RLU/20 μl lysate | Luciferase RLU/20 μl lysate spleen (WR (lipid to DNA) 2, spleen): 40 RLU/20 μl lysate

CCCCCCCCCCCCCCCCCCN(CCCCCCCCCCCCCCCCCC)C(=O)[C@H](CCC(=O)NCCN(CCNC(=O)CC[C@H](NC(=O)[C@H](CCCNCCCN)NCCCN)C(=O)N(CCCCCCCCCCCCCCCCCC)CCCCCCCCCCCCCCCCCC)CCNC(=O)CC[C@H](NC(=O)[C@H](CCCNCCCN)NCCCN)C(=O)N(CCCCCCCCCCCCCCCCCC)CCCCCCCCCCCCCCCCCC)NC(=O)[C@H](CCCNCCCN)NCCCN.O=C(O)C(F)(F)F.O=C(O)C(F)(F)F.O=C(O)C(F)(F)F.O=C(O)C(F)(F)F.O=C(O)C(F)(F)F.O=C(O)C(F)(F)F.O=C(O)C(F)(F)F.O=C(O)C(F)(F)F.O=C(O)C(F)(F)F.O=C(O)C(F)(F)F.O=C(O)C(F)(F)F.O=C(O)C(F)(F)F.O=C(O)C(F)(F)F [GC-071]
Luciferase RLU/20 μl lysate heart (WR 2): 60 RLU/20 μl lysate | Luciferase RLU/20 μl lysate kidney (WR 2): 58 RLU/20 μl lysate | Luciferase RLU/20 μl lysate liver (WR 2): 59 RLU/20 μl lysate | Luciferase RLU/20 μl lysate lung (WR 2): 56 RLU/20 μl lysate | Luciferase RLU/20 μl lysate heart (WR 10): 61 RLU/20 μl lysate | Luciferase RLU/20 μl lysate kidney (WR 10): 67 RLU/20 μl lysate | Luciferase RLU/20 μl lysate liver (WR 10): 531 RLU/20 μl lysate | Luciferase RLU/20 μl lysate lung (WR 10): 73 RLU/20 μl lysate | Luciferase RLU/20 μl lysate spleen (WR 10, spleen): 286 RLU/20 μl lysate | Luciferase RLU/20 μl lysate spleen (WR (lipid to DNA) 2, spleen): 61 RLU/20 μl lysate

CCCCCCCCCCCCCCCCCCN(CCCCCCCCCCCCCCCCCC)C(=O)CNC(=O)[C@@H](N)CCCN.O=C(O)C(F)(F)F.O=C(O)C(F)(F)F [GC-035]
Luciferase RLU/20 μl lysate heart (WR 2): 54 RLU/20 μl lysate | Luciferase RLU/20 μl lysate kidney (WR 2): 46 RLU/20 μl lysate | Luciferase RLU/20 μl lysate liver (WR 2): 57 RLU/20 μl lysate | Luciferase RLU/20 μl lysate lung (WR 2): 57 RLU/20 μl lysate | Luciferase RLU/20 μl lysate heart (WR 10): 51 RLU/20 μl lysate | Luciferase RLU/20 μl lysate kidney (WR 10): 54 RLU/20 μl lysate | Luciferase RLU/20 μl lysate liver (WR 10): 50 RLU/20 μl lysate | Luciferase RLU/20 μl lysate lung (WR 10): 54 RLU/20 μl lysate | Luciferase RLU/20 μl lysate spleen (WR 10, spleen): 54 RLU/20 μl lysate | Luciferase RLU/20 μl lysate spleen (WR (lipid to DNA) 2, spleen): 70 RLU/20 μl lysate

CCCCCCCCCCCCCCCCCC(CCCCCCCCCCCCCCCCC)OC(=O)NCCNC(=O)[C@H](CCCNCCCN)NCCCN.O=C(O)C(F)(F)F.O=C(O)C(F)(F)F.O=C(O)C(F)(F)F.O=C(O)C(F)(F)F [GC-029]
Luciferase RLU/20 μl lysate heart (WR 2): 42 RLU/20 μl lysate | Luciferase activity heart (WR 2): 933 RLU/organ | Luciferase RLU/20 μl lysate kidney (WR 2): 34 RLU/20 μl lysate | Luciferase activity kidney (WR 2): 1,000 RLU/organ | Luciferase RLU/20 μl lysate liver (WR 2): 31 RLU/20 μl lysate | Luciferase activity liver (WR 2): 825 RLU/organ | Luciferase RLU/20 μl lysate lung (WR 2): 41 RLU/20 μl lysate | Luciferase activity lung (WR 2): 967 RLU/organ | Luciferase activity spleen (WR 2, spleen): 908 RLU/organ | Luciferase RLU/20 μl lysate heart (WR 10): 34 RLU/20 μl lysate | Luciferase activity heart (WR 10): 858 RLU/organ | Luciferase RLU/20 μl lysate kidney (WR 10): 42 RLU/20 μl lysate | Luciferase activity kidney (WR 10): 808 RLU/organ | Luciferase RLU/20 μl lysate liver (WR 10): 65 RLU/20 μl lysate | Luciferase activity liver (WR 10): 1,408 RLU/organ | Luciferase RLU/20 μl lysate lung (WR 10): 72 RLU/20 μl lysate | Luciferase activity lung (WR 10): 1,017 RLU/organ | Luciferase RLU/20 μl lysate spleen (WR 10, spleen): 196 RLU/20 μl lysate | Luciferase activity spleen (WR 10, spleen): 1,992 RLU/organ | Luciferase RLU/20 μl lysate spleen (WR (lipid to DNA) 2, spleen): 31 RLU/20 μl lysate
